system: cancer cells; assay: MTT cytotoxic assay of esterification products (Cytotoxicity activity); type: cell-based, human; settings: E4A esterified with Cinnamoyl chloride (Cin = Cinnamoyl), compounds isolated with HPLC
In short: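 Cytotoxicity was read by MTT (Carmichael method, modified), with cells seeded 24 h ahead of treatment. Sixteen human cancer lines spanning bone, lung, bladder, ovary, colon, pancreas, prostate, skin, mouth, kidney, breast, liver, brain, leukemia and cervix were used. Test samples were acyl chloride esterification products of triterpenes, as mixtures or HPLC-purified compounds.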

Row | SMILES | Cytotoxicity activity
1 | CC1(C)CC2C3=CCC4C5(C)CCC(O)C(C)(COC(=O)C=Cc6ccccc6)C5CCC4(C)C3(C)CC(O)C2(CO)C(O)C1O (centres unmarked) [Compound J1] | moderate
2 | CC1(C)CC2C3=CCC4C5(C)CCC(O)C(C)(CO)C5CCC4(C)C3(C)CC(O)C2(COC(=O)C=Cc2ccccc2)C(O)C1O (centres unmarked) [Compound J2] | moderate
3 | CC1(C)CC2C3=CCC4C5(C)CCC(O)C(C)(COC(=O)C=Cc6ccccc6)C5CCC4(C)C3(C)CC(O)C2(COC(=O)C=Cc2ccccc2)C(O)C1O (centres unmarked) [Compound J3] | strong
4 | CC1(C)CC2C3=CCC4C5(C)CCC(O)C(C)(COC(=O)C=Cc6ccccc6)C5CCC4(C)C3(C)CC(O)C2(COC(=O)C=Cc2ccccc2)C(O)C1OC(=O)C=Cc1ccccc1 (centres unmarked) [Compound J4] | moderate
5 | CC1(C)CC2C3=CCC4C5(C)CCC(O)C(C)(COC(=O)C=Cc6ccccc6)C5CCC4(C)C3(C)CC(O)C2(COC(=O)C=Cc2ccccc2)C(OC(=O)C=Cc2ccccc2)C1O (centres unmarked) [Compound J5] | moderate
6 | CC1(C)CC2C3=CCC4C5(C)CCC(OC(=O)C=Cc6ccccc6)C(C)(COC(=O)C=Cc6ccccc6)C5CCC4(C)C3(C)CC(O)C2(COC(=O)C=Cc2ccccc2)C(O)C1O (centres unmarked) [Compound J6] | moderate
7 | CC1(C)CC2C3=CCC4C5(C)CCC(O)C(C)(COC(=O)C=Cc6ccccc6)C5CCC4(C)C3(C)CC(OC(=O)C=Cc3ccccc3)C2(COC(=O)C=Cc2ccccc2)C(O)C1O (centres unmarked) [Compound J7] | moderate
8 | CC1(C)CC2C3=CCC4C5(C)CCC(O)C(C)(COC(=O)C=Cc6ccccc6)C5CCC4(C)C3(C)CC(O)C2(COC(=O)C=Cc2ccccc2)C(OC(=O)C=Cc2ccccc2)C1OC(=O)C=Cc1ccccc1 (centres unmarked) [Compound J8] | weak
9 | CC1(C)CC2C3=CCC4C5(C)CCC(OC(=O)C=Cc6ccccc6)C(C)(COC(=O)C=Cc6ccccc6)C5CCC4(C)C3(C)CC(O)C2(COC(=O)C=Cc2ccccc2)C(OC(=O)C=Cc2ccccc2)C1O (centres unmarked) [Compound J9] | weak
10 | CC1(C)CC2C3=CCC4C5(C)CCC(OC(=O)C=Cc6ccccc6)C(C)(COC(=O)C=Cc6ccccc6)C5CCC4(C)C3(C)CC(OC(=O)C=Cc3ccccc3)C2(COC(=O)C=Cc2ccccc2)C(O)C1O (centres unmarked) [Compound J10] | weak
11 | CC1(C)CC2C3=CCC4C5(C)CCC(OC(=O)C=Cc6ccccc6)C(C)(COC(=O)C=Cc6ccccc6)C5CCC4(C)C3(C)CC(O)C2(COC(=O)C=Cc2ccccc2)C(O)C1OC(=O)C=Cc1ccccc1 (centres unmarked) [Compound J11] | weak
12 | CC1(C)CC2C3=CCC4C5(C)CCC(O)C(C)(COC(=O)C=Cc6ccccc6)C5CCC4(C)C3(C)CC(OC(=O)C=Cc3ccccc3)C2(COC(=O)C=Cc2ccccc2)C(OC(=O)C=Cc2ccccc2)C1O (centres unmarked) [Compound J12] | weak
13 | CC1(C)CC2C3=CCC4C5(C)CCC(O)C(C)(COC(=O)C=Cc6ccccc6)C5CCC4(C)C3(C)CC(OC(=O)C=Cc3ccccc3)C2(COC(=O)C=Cc2ccccc2)C(O)C1OC(=O)C=Cc1ccccc1 (centres unmarked) [Compound J13] | weak
14 | CC1(C)CC2C3=CCC4C5(C)CCC(OC(=O)C=Cc6ccccc6)C(C)(COC(=O)C=Cc6ccccc6)C5CCC4(C)C3(C)CC(O)C2(COC(=O)C=Cc2ccccc2)C(OC(=O)C=Cc2ccccc2)C1OC(=O)C=Cc1ccccc1 (centres unmarked) [Compound J15] | weak
15 | CC1(C)CC2C3=CCC4C5(C)CCC(O)C(C)(COC(=O)C=Cc6ccccc6)C5CCC4(C)C3(C)CC(OC(=O)C=Cc3ccccc3)C2(COC(=O)C=Cc2ccccc2)C(OC(=O)C=Cc2ccccc2)C1OC(=O)C=Cc1ccccc1 (centres unmarked) [Compound J16] | weak
16 | CC1(C)CC2C3=CCC4C5(C)CCC(OC(=O)C=Cc6ccccc6)C(C)(COC(=O)C=Cc6ccccc6)C5CCC4(C)C3(C)CC(OC(=O)C=Cc3ccccc3)C2(COC(=O)C=Cc2ccccc2)C(O)C1OC(=O)C=Cc1ccccc1 (centres unmarked) [Compound J17] | weak
17 | CC1(C)CC2C3=CCC4C5(C)CCC(OC(=O)C=Cc6ccccc6)C(C)(COC(=O)C=Cc6ccccc6)C5CCC4(C)C3(C)CC(OC(=O)C=Cc3ccccc3)C2(COC(=O)C=Cc2ccccc2)C(OC(=O)C=Cc2ccccc2)C1O (centres unmarked) [Compound J18] | weak
18 | CC1(C)CC2C3=CCC4C5(C)CCC(OC(=O)C=Cc6ccccc6)C(C)(COC(=O)C=Cc6ccccc6)C5CCC4(C)C3(C)CC(OC(=O)C=Cc3ccccc3)C2(COC(=O)C=Cc2ccccc2)C(OC(=O)C=Cc2ccccc2)C1OC(=O)C=Cc1ccccc1 (centres unmarked) [Compound J19] | none
19 | CC1(C)CC2C3=CCC4C5(C)CCC(O)C(C)(CO)C5CCC4(C)C3(C)CC(O)C2(COC(=O)C=Cc2ccccc2)C(OC(=O)C=Cc2ccccc2)C1OC(=O)C=Cc1ccccc1 (centres unmarked) [Compound J20] | moderate
20 | CC1(C)CC2C3=CCC4C5(C)CCC(O)C(C)(COC(=O)C=Cc6ccccc6)C5CCC4(C)C3(C)CC(O)C2(CO)C(OC(=O)C=Cc2ccccc2)C1OC(=O)C=Cc1ccccc1 (centres unmarked) [Compound J21] | moderate
21 | CC1(C)CC2C3=CCC4C5(C)CCC(O)C(C)(CO)C5CCC4(C)C3(C)CC(OC(=O)C=Cc3ccccc3)C2(CO)C(OC(=O)C=Cc2ccccc2)C1OC(=O)C=Cc1ccccc1 (centres unmarked) [Compound J22] | moderate
22 | CC1(C)CC2C3=CCC4C5(C)CCC(OC(=O)C=Cc6ccccc6)C(C)(CO)C5CCC4(C)C3(C)CC(O)C2(CO)C(OC(=O)C=Cc2ccccc2)C1OC(=O)C=Cc1ccccc1 (centres unmarked) [Compound J23] | moderate
23 | CC1(C)CC2C3=CCC4C5(C)CCC(O)C(C)(CO)C5CCC4(C)C3(C)CC(O)C2(CO)C(OC(=O)C=Cc2ccccc2)C1OC(=O)C=Cc1ccccc1 (centres unmarked) [Compound J24] | moderate
24 | CC1(C)CC2C3=CCC4C5(C)CCC(O)C(C)(CO)C5CCC4(C)C3(C)CC(O)C2(COC(=O)C=Cc2ccccc2)C(O)C1OC(=O)C=Cc1ccccc1 (centres unmarked) [Compound J25] | moderate
25 | CC1(C)CC2C3=CCC4C5(C)CCC(O)C(C)(CO)C5CCC4(C)C3(C)CC(O)C2(COC(=O)C=Cc2ccccc2)C(OC(=O)C=Cc2ccccc2)C1O (centres unmarked) [Compound J26] | moderate
26 | CC1(C)CC2C3=CCC4C5(C)CCC(OC(=O)C=Cc6ccccc6)C(C)(CO)C5CCC4(C)C3(C)CC(O)C2(COC(=O)C=Cc2ccccc2)C(O)C1O (centres unmarked) [Compound J27] | moderate

same assay, conditions: E4A esterified with Crotonoyl chloride (Cro = Crotonoyl), compounds isolated with HPLC

Row | SMILES | Cytotoxicity activity
27 | CC=CC(=O)OCC1(C)C(OC(=O)C=CC)CCC2(C)C1CCC1(C)C2CC=C2C3CC(C)(C)C(OC(=O)C=CC)C(OC(=O)C=CC)C3(COC(=O)C=CC)C(O)CC21C (centres unmarked) [Compound I15] | weak
28 | CC=CC(=O)OCC1(C)C(O)CCC2(C)C1CCC1(C)C2CC=C2C3CC(C)(C)C(OC(=O)C=CC)C(OC(=O)C=CC)C3(COC(=O)C=CC)C(OC(=O)C=CC)CC21C (centres unmarked) [Compound I16] | weak
29 | CC=CC(=O)OCC1(C)C(OC(=O)C=CC)CCC2(C)C1CCC1(C)C2CC=C2C3CC(C)(C)C(OC(=O)C=CC)C(O)C3(COC(=O)C=CC)C(OC(=O)C=CC)CC21C (centres unmarked) [Compound I17] | weak
30 | CC=CC(=O)OCC1(C)C(OC(=O)C=CC)CCC2(C)C1CCC1(C)C2CC=C2C3CC(C)(C)C(O)C(OC(=O)C=CC)C3(COC(=O)C=CC)C(OC(=O)C=CC)CC21C (centres unmarked) [Compound I18] | weak
31 | CC=CC(=O)OCC1(C)C(OC(=O)C=CC)CCC2(C)C1CCC1(C)C2CC=C2C3CC(C)(C)C(OC(=O)C=CC)C(OC(=O)C=CC)C3(COC(=O)C=CC)C(OC(=O)C=CC)CC21C (centres unmarked) [Compound I19] | none
32 | CC=CC(=O)OCC12C(O)CC3(C)C(=CCC4C5(C)CCC(O)C(C)(CO)C5CCC43C)C1CC(C)(C)C(OC(=O)C=CC)C2OC(=O)C=CC (centres unmarked) [Compound I20] | moderate
33 | CC=CC(=O)OCC1(C)C(O)CCC2(C)C1CCC1(C)C2CC=C2C3CC(C)(C)C(OC(=O)C=CC)C(OC(=O)C=CC)C3(CO)C(O)CC21C (centres unmarked) [Compound I21] | moderate
34 | CC=CC(=O)OC1C(OC(=O)C=CC)C2(CO)C(OC(=O)C=CC)CC3(C)C(=CCC4C5(C)CCC(O)C(C)(CO)C5CCC43C)C2CC1(C)C (centres unmarked) [Compound I22] | moderate
35 | CC=CC(=O)OC1C(OC(=O)C=CC)C2(CO)C(O)CC3(C)C(=CCC4C5(C)CCC(OC(=O)C=CC)C(C)(CO)C5CCC43C)C2CC1(C)C (centres unmarked) [Compound I23] | moderate
36 | CC=CC(=O)OC1C(OC(=O)C=CC)C2(CO)C(O)CC3(C)C(=CCC4C5(C)CCC(O)C(C)(CO)C5CCC43C)C2CC1(C)C (centres unmarked) [Compound I24] | moderate
37 | CC=CC(=O)OCC12C(O)CC3(C)C(=CCC4C5(C)CCC(O)C(C)(CO)C5CCC43C)C1CC(C)(C)C(OC(=O)C=CC)C2O (centres unmarked) [Compound I25] | moderate
38 | CC=CC(=O)OCC12C(O)CC3(C)C(=CCC4C5(C)CCC(O)C(C)(CO)C5CCC43C)C1CC(C)(C)C(O)C2OC(=O)C=CC (centres unmarked) [Compound I26] | moderate
39 | CC=CC(=O)OCC12C(O)CC3(C)C(=CCC4C5(C)CCC(OC(=O)C=CC)C(C)(CO)C5CCC43C)C1CC(C)(C)C(O)C2O (centres unmarked) [Compound I27] | moderate
40 | CC=CC(=O)OCC12C(OC(=O)C=CC)CC3(C)C(=CCC4C5(C)CCC(O)C(C)(CO)C5CCC43C)C1CC(C)(C)C(O)C2O (centres unmarked) [Compound I28] | moderate
41 | CC=CC(=O)OCC1(C)C(O)CCC2(C)C1CCC1(C)C2CC=C2C3CC(C)(C)C(OC(=O)C=CC)C(O)C3(CO)C(O)CC21C (centres unmarked) [Compound I29] | moderate
42 | CC=CC(=O)OCC1(C)C(O)CCC2(C)C1CCC1(C)C2CC=C2C3CC(C)(C)C(O)C(OC(=O)C=CC)C3(CO)C(O)CC21C (centres unmarked) [Compound I30] | moderate
43 | CC=CC(=O)OCC1(C)C(OC(=O)C=CC)CCC2(C)C1CCC1(C)C2CC=C2C3CC(C)(C)C(O)C(O)C3(CO)C(O)CC21C (centres unmarked) [Compound I31] | moderate
44 | CC=CC(=O)OCC1(C)C(O)CCC2(C)C1CCC1(C)C2CC=C2C3CC(C)(C)C(O)C(O)C3(CO)C(OC(=O)C=CC)CC21C (centres unmarked) [Compound I32] | moderate

Reference: patent US20230340012A1, “NATURAL AND SYNTHETIC COMPOUNDS FOR TREATING CANCER AND OTHER DISEASES” (PACIFIC ARROW LIMITED, priority 2009, published 2023)
